Experiments:
[1] = test system: hippocampal neurons; experiment: Functional terminal density by FM1-43 imaging
Description: (§3) Neurons were plated onto Matrigel® (BD)-coated 8×8 mm coverslips or 6-well cell plates (Corning).
Background FM, determined by imaging after unloading of FM dye following 480 APs at 2 Hz, was subtracted from the physiological action potential image. Terminals containing detectable amount of FM after subtraction were considered to be functional.
FM 1-43+ puncta number per μm^2 of dendrite was used to estimate functional presynaptic terminal density.

[2] = test system: cultured rat hippocampal neurons; experiment: Intracellular free Mg2+ analysis (Magnesium Green) in hippocampal neuron cultures
Description: as §3
[Mg^2+]i was determined by using Magnesium Green™ (MgGreen, Invitrogen).
Where F(a.u.) is the mean fluorescent density (arbitrary units) in the branch of interest which was quantified by using Image-Pro Plus software (IPP, Media Cybernetics, Carlsbad, Calif.), and Ddiameter is the mean width of the same selected branch in DIC image.

[3] = test system: hippocampal neurons; conditions: threonate 0-150 μM, 2 days
Description: (§1) For chemical structure see supplemental FIG. 1.
Neuronal cultures were washed three times in 0.01 M PBS followed by fixation for 20 min in 4% paraformaldehyde at 4° C. The neuronal culture coverslips were then washed in PBS before incubation in blocking solution containing 0.1% Triton X-100 and 1% bovine serum albumin for 30 min at room temperature. […] Finally, neurons were mounted onto slides with anti-fade fluorescent mounting medium (Vector Laboratories) and stored at 4° C. for 2 days.
Cultures were imaged with a confocal laser inverted microscope (Olympus IX-70) equipped with a 60× (NA 1.2) objective. […] The density of synaptophysin (Syn) and PSD-95 was estimated from images by analyzing with IPP. The puncta of Syn and PSD-95, localized at the dendrites labeled by the neuronal marker MAP2, were counted manually. To determine the density of Syn and PSD-95 colocalization, we aligned two sets of images and resulting yellow clusters (Syn: red; PSD-95: green) localized at dendritic were quantified. Fluorescence spots (red and green) having a diameter between 0.1 and 0.6 μm were classified.

[4] = test system: hippocampal neurons; conditions: threonate 0-150 μM, 2 days; remark: listed apart in the source
From the text: as §1
(§2) Proteins were transferred to PVDF membranes (Millipore), probed with primary antibodies against Synaptophysin (Millipore), RIM1 and Rab3a (Synaptic System), PSD-95, NR2B, β-tubulin and/or β-actin (all from Cell Signaling Technology) and then followed by an appropriate HRP-coupled secondary antibody (Cell Signaling Technology). The signals were detected by ECL detection reagent (GE Healthcare) and captured on autoradiography film (Kodak). For quantification of protein signals, the integrated optical density (IOD) was measured with IPP, and β-tubulin or β-actin on the same lane served as loading controls.

[5] = test system: hippocampal neurons; conditions: threonate (150 M) for 2 days, 0.6 Mg, p<0.01
From the text: Mitochondrial transmembrane potential (Δψm) of hippocampal neurons was observed microscopically (Olympus IX-70) by using 5,5′,6,6′-tetrachloro-1,1′,3,3′-tetraethylbenzimidazolylcarbocyanine iodide (JC-1, Invitrogen). The monomeric form of JC-1 has an emission maximum at 529 nm. At higher concentrations or potentials the dye forms red fluorescent J-aggregates with an emission maximum of 590 nm. The ratio of J-aggregate/J-monomer is used as an estimate of Δψm.

[6] = test system: hNSC-derived neurons
Description: Human fetal cortices-derived neural stem cells (hNSC; Angecon, China) were cultured in hNSC medium (Angecon) according to guidelines provided by Angecon. hNSCs were maintained in this medium for 10-14 days, passaged using Accutase (Invitrogen), washed and replated at a dilution of 1:3 to 1:5.
A previously described differentiation protocol was used to differentiate hNSCs to neurons. Briefly, hNSC cultures were dissociated into single cells with Accutase, and then plated on polyornithine/laminin (Sigma)-coated 6-well plates at 50,000 cells per cm^2 in neural maintenance medium with EGF (Invitrogen) and FGF2 (Pepro Tech) at a concentration of 10 ng ml^−1. Neural maintenance medium consists of a 1:1 mixture of DMEM/F12 and Neurobasal medium (Invitrogen), 1×N2 (Invitrogen), 1×B27 (Invitrogen), 1 mM L-glutamine, 0.1 mM non-essential amino acids, 5 μg ml^−1 insulin, 0.1 mM 2-mercaptoethanol, 25 U ml^−1 penicillin and […] streptomycin. […] Neurons were maintained 10-14 days in this medium; medium was replaced every day. When neuroepithelial cells appeared, Dispase (Roche) was used to collect cells. They were replated in neural maintenance medium with EGF and FGF2 at 20 ng ml^−1 for 2-4 days, then changed to neural maintenance medium and cultured for up to 80 days, replacing medium every other day.
as §2

[7] = human neurons treated at day 90, dose-dependent, up to 400 μM
[8] = threonate 150 μM, time course 0-36 hr

SMILES: C=C1[C@@H](C)[C@H]2[C@H](Cc3ccccc3)NC(=O)[C@]23OC(=O)/C=C/[C@H](O)CCC[C@@H](C)C/C=C/[C@H]3[C@@H]1O [CB, cytochalasin B, reference compound]
- density of functional terminals relative to control, inhibitor alone ([1]; 4 hr, without threonate): did not affect
- intracellular [Mg2+] relative to control, inhibitor alone ([2]; 4 hr, without threonate): did not alter

SMILES: NCC(=O)O [glycinate, reference compound]
- effect on functional terminal density, comparison of anions [1]: no significant effects
- ability to increase intracellular [Mg2+], comparison of anions [2]: threonate was the only one able to increase

SMILES: O=C(CCc1ccc(O)cc1)c1c(O)cc(O)cc1O [phloretin, reference compound]
- decrease of functional terminal density, inhibitor alone ([1]; 4 hr, without threonate, p<0.05): 10.5%
- decrease of intracellular [Mg2+] relative to placebo, inhibitor alone ([2]; 4 hr, without threonate, p<0.01): 10.4%

SMILES: O=C(O)[C@H](O)[C@@H](O)CO [threonate, (2R,3S)-2,3,4-trihydroxybutanoate]
- colocalization of Syn/PSD-95 [3]: significantly upregulated
- density of PSD-95 puncta [3]: significantly upregulated
- density of Syn puncta [3]: significantly upregulated
- NR2B-containing NMDAR expression (Western blot) [4]: significantly upregulated
- PSD-95 expression (Western blot) [4]: significantly increased
- RIM1 expression (Western blot) [4]: significantly increased
- Rab3a expression (Western blot) [4]: significantly increased
- Syn expression (Western blot) [4]: significantly increased
- increase of mitochondrial membrane potential ΔΨm (JC-1 aggregate/monomer ratio) [5]: 49.6%
- threonate dose response curve in human neurons compared to the rat dose response curve ([6]; effects continued to increase even at 400 μM): shifted toward a higher concentration
- PSD-95 expression (Western blot) [6, 7]: significantly increased
- Syn expression (Western blot) [6, 7]: significantly increased
- effect on functional terminal density in the presence of CB ([1]; threonate 150 μM, 4 hr, with cytochalasin B): unable to elevate
- increase of functional terminal density relative to control in the presence of phloretin ([1]; threonate 150 μM, 4 hr, with phloretin, p<0.001): 20.4%
- number of functional terminals, dose dependence ([1]; threonate 50-150 μM, 2 days, extracellular [Mg2+] 0.6, 0.8 or 1.2 mM): increased in threonate-treated neurons in a dose-dependent manner
- effect on functional terminal density at reduced extracellular [Mg2+] ([1]; threonate 4 hr, 0.1 mM extracellular [Mg2+]): prevented threonate from increasing functional terminal density
- increase of functional terminal density ([1]; threonate (150 M) for 4 hr, 0.6 mM extracellular [Mg2+] (Example 5)): 23%
- threonate-mediated increase of intracellular [Mg2+] in the presence of CB ([2]; 4 hr, with cytochalasin B (GLUTs inhibitor)): prevented
- increase of intracellular [Mg2+] in the presence of phloretin ([2]; 4 hr, with phloretin (SVCT2 inhibitor), p<0.0001): 23.5%
- threonate concentration that induced the largest change in intracellular [Mg2+] ([2]; 2 day treatment, 0-200 μM tested): 150 µM
- effect on intracellular [Mg2+] ([2]; 2 day treatment, threonate 0-200 μM, extracellular [Mg2+] 0.6, 0.8 or 1.2 mM): increase of intracellular [Mg^2+] in a dosage-dependent manner
- effect on intracellular [Mg2+] at reduced extracellular [Mg2+] ([2]; threonate 150 μM, 4 hr, 0.1 mM extracellular [Mg2+]): no longer induced elevation
- increase of intracellular [Mg2+] ([2]; threonate 150 μM, 4 hr, 0.6 mM extracellular [Mg2+] (Example 3)): ~27%
- persistence of the intracellular [Mg2+] increase [2, 8]: persisted for the entire course of the experiment
- time at which effect on intracellular [Mg2+] was maximal [2, 8]: 2 h
- increase of intracellular [Mg2+] ([2]; threonate (150 mM), 4 hr, 0.6 mM [Mg2+]o (Example 7), p<0.0001): 29.6%

Source: patent US10493048B2 (Neurocentria, Inc., priority 2015, dated 2019)
